# Data from article PMC10279719 (Nature Communications, 2023).
# Tests used:
# 14-3-3ε = target: T1, 14-3-3ε (Homo sapiens, UniProt P62258); assay: SPR, PEAK tandem peptides binding to immobilised 14-3-3ε; settings: peptide analyte over amine-coupled 14-3-3ε (CM5); Biacore S200, HBS-TP pH 7.4, 20 °C; steady-state 1:1 fit; mean ± S.E.M.; read-out: SPR KD, 14-3-3ε (epsilon)
# T1 construct: 14-3-3ε (UniProt P62258-1; residues 1–255); 8-His tag with TEV protease cleavage site (N); made in house; host or cells: E. coli C41 (DE3)
# T1 sequence (P62258 1-255): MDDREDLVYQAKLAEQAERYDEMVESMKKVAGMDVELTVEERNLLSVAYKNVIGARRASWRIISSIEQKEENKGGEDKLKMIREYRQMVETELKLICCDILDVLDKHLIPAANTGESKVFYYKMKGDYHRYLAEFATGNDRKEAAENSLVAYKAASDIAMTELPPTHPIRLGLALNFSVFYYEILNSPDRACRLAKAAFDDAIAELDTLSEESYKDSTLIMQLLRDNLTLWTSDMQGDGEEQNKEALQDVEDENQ
# Protocol: Purified […]3 was diluted to 5 μg ml^-1 in 10 mM sodium acetate pH 4.0 and amine coupled at 25 °C to a Series S CM5 sensor chip, in HBS-N running buffer (20 mM HEPES pH 7.4, 150 mM NaCl) to a final immobilization level of 1100-1400 response units (RU), followed by surface deactivation using 1 M ethanolamine. A blank activation/deactivation was used for the reference surface. […] PEAK PRM peptides: […] Samples were injected in a multi-cycle run (flow rate 30 μl min^-1, contact time of 60 s, dissociation 120 s) without regeneration. Sensorgrams were double referenced, and steady-state binding data fitted using a 1:1 binding model using Biacore S200 Evaluation Software (Cytiva, v. 1.1). […] Representative sensorgrams and fitted dissociation constant (KD) values, depicted as mean ± S.E.M.
# 14-3-3η = target: T2, 14-3-3η (Homo sapiens, UniProt Q04917); assay: SPR, PEAK tandem peptides binding to immobilised 14-3-3η; settings: peptide analyte over amine-coupled 14-3-3η (CM5); Biacore S200, HBS-TP pH 7.4, 20 °C; steady-state 1:1 fit; mean ± S.E.M.; read-out: SPR KD, 14-3-3η (eta)
# T2 construct: 14-3-3η (UniProt Q04917-1; residues 1–246); 8-His tag with TEV protease cleavage site (N); made in house; host or cells: E. coli C41 (DE3)
# T2 sequence (Q04917 1-246): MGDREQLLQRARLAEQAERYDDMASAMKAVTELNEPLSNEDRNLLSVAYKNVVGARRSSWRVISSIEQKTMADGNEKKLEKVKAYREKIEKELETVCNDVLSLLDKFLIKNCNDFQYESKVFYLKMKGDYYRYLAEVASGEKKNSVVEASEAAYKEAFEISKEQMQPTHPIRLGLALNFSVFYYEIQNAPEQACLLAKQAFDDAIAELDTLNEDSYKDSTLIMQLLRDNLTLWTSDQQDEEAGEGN
# Protocol: (§1) Purified […]3 was diluted to 5 μg ml^-1 in 10 mM sodium acetate pH 4.0 and amine coupled at 25 °C to a Series S CM5 sensor chip, in HBS-N running buffer (20 mM HEPES pH 7.4, 150 mM NaCl) to a final immobilization level of 1100-1400 response units (RU), followed by surface deactivation using 1 M ethanolamine. A blank activation/deactivation was used for the reference surface. […] Samples were injected in a multi-cycle run (flow rate 30 μl min^-1, contact time of 60 s, dissociation 120 s) without regeneration. Sensorgrams were double referenced, and steady-state binding data fitted using a 1:1 binding model using Biacore S200 Evaluation Software (Cytiva, v. 1.1). […] Representative sensorgrams and fitted dissociation constant (KD) values, depicted as mean ± S.E.M.
# CrkII^NSH3 [1] = target: T3, CrkII^NSH3 (Homo sapiens, UniProt P46108); assay: ITC, CrkII NSH3 titrated into PEAK3 tandem peptides (binary) or peptide:14-3-3γ complexes (ternary); assay type: binding; settings: individual run, repeat 1, CrkII N-SH3 400 µM into the labelled complex 16.8 µM (Titrations 10, 12, 16)
# T3 construct: CrkII^NSH3; UniProt P46108-1, residues 134–191; 8-His tag with TEV protease cleavage site (N); made in house; host or cells: E. coli C41 (DE3)
# T3 sequence (P46108 134-191): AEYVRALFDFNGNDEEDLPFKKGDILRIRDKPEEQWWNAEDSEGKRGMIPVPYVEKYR
# Protocol: ITC binding experiments were conducted using a MicroCal iTC200 instrument (Malvern Instruments). Titrations were conducted at 25 °C in reverse mode (peptide in cell, protein in syringe) and consisted of 19 injections of 2 μl […] at a rate of 2 s μl^−1 at 90 s time intervals, whilst stirring at 1000 rpm. An initial injection of 0.4 μl protein was made and discarded during data analysis. Proteins (14-3-3ɣ or CrkII^NSH3) were first dialyzed overnight at 4 °C into ITC buffer (20 mM HEPES pH 7.4, 150 mM NaCl, 1 mM TCEP), filtered and degassed under vacuum. […] Following the first titration, excess solution was removed from the cell, and the syringe was washed and dried. […] All data were fitted to a single binding site model to obtain the stoichiometry (N), dissociation constant (KD) and the enthalpy of binding (ΔH), using MicroCal PEAQ-ITC Analysis software (v.1.41).
# 14-3-3γ = target: T4, 14-3-3γ (Homo sapiens, UniProt P61981); assay: SPR, PEAK peptides binding to immobilised 14-3-3γ; settings: peptide analyte over amine-coupled 14-3-3γ (CM5); Biacore S200, HBS-TP pH 7.4, 20 °C; steady-state 1:1 fit; mean ± S.E.M.
# T4 construct: 14-3-3γ (UniProt P61981-1; residues 1–247); 8-His tag with TEV protease cleavage site (N); made in house; host or cells: E. coli C41 (DE3)
# T4 sequence (P61981 1-247): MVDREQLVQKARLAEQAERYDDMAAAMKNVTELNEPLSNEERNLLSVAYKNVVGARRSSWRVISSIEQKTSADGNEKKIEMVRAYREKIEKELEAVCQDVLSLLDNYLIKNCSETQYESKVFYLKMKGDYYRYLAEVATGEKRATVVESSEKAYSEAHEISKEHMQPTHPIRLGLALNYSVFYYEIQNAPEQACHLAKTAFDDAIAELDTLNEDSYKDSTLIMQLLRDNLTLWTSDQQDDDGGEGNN
# Protocol: as §1
# CrkII^SH2 = target: T5, CrkII^SH2 (Homo sapiens, UniProt P46108); assay: SPR, CrkII SH2 binding to immobilised PEAK proteins; settings: interactor as analyte over biotinylated PEAK protein (biotin CAPture); Biacore 8K+, HBS-TP with 500 mM NaCl, 20 °C; steady-state fit; mean ± S.E.M. (N = 3)
# T5 construct: CrkII^SH2; UniProt P46108-1, residues 6–120; 8-His tag with TEV protease cleavage site (N); made in house; host or cells: E. coli C41 (DE3)
# T5 sequence (P46108 6-120): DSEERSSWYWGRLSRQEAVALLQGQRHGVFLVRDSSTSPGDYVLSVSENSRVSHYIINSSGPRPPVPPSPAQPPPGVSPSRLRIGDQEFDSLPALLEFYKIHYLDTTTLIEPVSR
# Protocol: (§2) SPR binding studies of PEAK PRM peptides to CrkII^NSH3 were performed using a Biacore S200 Instrument (Cytiva). Purified CrkII^NSH3 was diluted to 5 µg ml^−1 in 10 mM sodium acetate pH 4.0 and amine coupled at 25 °C to a Series S CM5 sensor chip, in HBS-N running buffer (20 mM HEPES pH 7.4, 150 mM NaCl) to a final immobilization level of 1100–1400 response units (RU), followed by surface deactivation using 1 M ethanolamine. A blank activation/deactivation was used for the reference surface. Peptide binding studies were performed at 20 °C in HBS-TP running buffer (20 mM HEPES pH 7.4, 150 mM NaCl, 1 mM TCEP, 0.005% (v/v) Tween-P20). […] Peptide stocks were further diluted to in running buffer to 10 or 20 µM and prepared as a 11-point concentration series (2-fold serial dilution, […] for PEAK PRM peptides, or 20 µM–20 nM for PEAK tandem motif peptides). Samples were injected in a multi-cycle run (flow rate 30 µl min^−1, contact time of 60 s, dissociation 120 s) without regeneration. Sensorgrams were double referenced, and steady-state binding data fitted using a 1:1 binding model using Biacore S200 Evaluation Software (Cytiva, v. 1.1).
# (§3) SPR binding studies of PEAK proteins to full length CrkII/Grb2 and sub-domains were performed using a Biacore 8K+ Instrument (Cytiva) and analyzed using Biacore Insight Evaluation Software (v. 3.0.12.15655). […] Binding studies and steady-state data analysis were performed as described for CrkII^NSH3 with the inclusion of an additional surface regeneration step (60 s injection of 1 M NaCl) between cycles.
# 14-3-3ɣ = assay: SPR, 14-3-3ɣ binding to immobilised PEAK proteins; parameters: species or system human; settings: 14-3-3ɣ analyte 0.46–1000 nM, multi-cycle, over immobilised biotinylated PEAK protein; Biacore 8K+, 20 °C; KD only an estimate (bivalent analyte model); N = 3
# Protocol: PEAK proteins and adapters proteins (full length or individual domains) were biotinylated using EZ-Link™ NHS-PEG4-Biotin (Thermo Fisher) at a 1:1 molar ratio (100 µM) for 1 h at room temperature, then excess biotin was removed by buffer exchange using a Zeba™ Spin Desalting Column (Thermo Fisher) into HBS-T buffer (20 mM HEPES pH 7.4, 150 mM NaCl, 1 mM TCEP).
# SPR binding studies of PEAK proteins to full length CrkII/Grb2 and sub-domains were performed using a Biacore 8K+ Instrument (Cytiva) and analyzed using Biacore Insight Evaluation Software (v. 3.0.12.15655). […] Biotinylated PEAK proteins (with or without Src phosphorylation; 500 nM in HBS-TP) were immobilized using a biotin CAPture kit (Cytiva) in HBS-TP running buffer at 20 °C. Binding studies and steady-state data analysis were performed as described for CrkII^NSH3 with the inclusion of an additional surface regeneration step (60 s injection of 1 M NaCl) between cycles. For Grb2^FL, Grb2^SH2, CrkII^SH2, CrkII^FL monomer and CrkII^FL dimer, to reduce nonspecific interactions the HBS-TP running buffer was supplemented with additional NaCl to a final concentration of 500 mM.
# Binding studies for 14-3-3ɣ were undertaken in the same way in multi cycle mode (8 point, 3-fold serial dilution series, 0.46–1000 nM, 60 s contact time, 300 s dissociation).
# CrkII^NSH3 [2] = target: T3, CrkII^NSH3; assay: SPR, CrkII NSH3 binding to immobilised PEAK proteins; settings: read-out: CrkII NSH3 SPR KD; interactor as analyte over biotinylated PEAK protein captured with biotin CAPture kit; Biacore 8K+, HBS-TP, 20 °C; steady-state fit; mean ± SD (N = 2); read-out: CrkII-SH2 SPR KD
# Protocol: as §2, §3
compound,measurement,setting,value
"CC[C@H](C)[C@H](NC(=O)[C@H](CCCCN)NC(=O)[C@H](CCCCN)NC(=O)[C@H](CCC(N)=O)NC(=O)[C@@H]1CCCN1C(=O)[C@H](CC(C)C)NC(=O)[C@@H]1CCCN1C(=O)[C@@H]1CCCN1C(=O)[C@@H]1CCCN1C(C)=O)C(=O)N[C@H](C(=O)N[C@@H](CO)C(=O)N[C@@H](CCCNC(=N)N)C(=O)N[C@@H](C)C(=O)N[C@@H](C)C(=O)N[C@@H](COP(=O)(O)O)C(=O)N[C@@H](CO)C(=O)N1CCC[C@H]1C(=O)N[C@@H](CC(=O)O)C(=O)NCC(=O)N[C@@H](Cc1ccccc1)C(N)=O)C(C)C (single isomer, unassigned) [PEAK2^tandem-pS826]",Kd,14-3-3ε,7.4 µM
same,Kd,14-3-3η,1.9 µM
"CC[C@H](C)[C@H](NC(=O)[C@H](CCCCN)NC(=O)[C@H](CCCCN)NC(=O)[C@@H]1CCCN1C(=O)[C@H](CC(C)C)NC(=O)[C@@H]1CCCN1C(=O)[C@@H]1CCCN1C(=O)[C@@H]1CCCN1C(=O)[C@H](CC(C)C)NC(=O)[C@@H]1CCCN1C(C)=O)C(=O)N[C@@H](CC(C)C)C(=O)N[C@H](C(=O)N[C@@H](CCCNC(=N)N)C(=O)N[C@H](C(=O)N[C@@H](CCC(N)=O)C(=O)N[C@@H](COP(=O)(O)O)C(=O)N[C@@H](CC(C)C)C(=O)N1CCC[C@H]1C(=O)N[C@H](C(=O)N[C@@H](CCCNC(=N)N)C(=O)N[C@@H](CCCNC(=N)N)C(N)=O)[C@@H](C)O)[C@@H](C)O)[C@@H](C)O (single isomer, unassigned) [PEAK3 tandem-pS69 : 14-3-3γ (K50E)]",ITC -T∆S,CrkII^NSH3 [1],-3.23 kcal/mol
same,ITC N (sites),CrkII^NSH3 [1],0.69
same,ITC ∆G,CrkII^NSH3 [1],-7.36 kcal/mol
same,ITC ∆H,CrkII^NSH3 [1],-4.16 kcal/mol
"CC[C@H](C)[C@H](NC(=O)[C@H](CCCCN)NC(=O)[C@H](CCCCN)NC(=O)[C@@H]1CCCN1C(=O)[C@H](CC(C)C)NC(=O)[C@@H]1CCCN1C(=O)[C@@H]1CCCN1C(=O)[C@@H]1CCCN1C(=O)[C@H](CC(C)C)NC(=O)[C@@H]1CCCN1C(C)=O)C(=O)N[C@@H](CC(C)C)C(=O)N[C@H](C(=O)N[C@@H](CCCNC(=N)N)C(N)=O)[C@@H](C)O (single isomer, unassigned) [PEAK3^54–66]","SPR KD, 14-3-3γ (gamma)",14-3-3γ,No binding
"CC[C@H](C)[C@H](NC(=O)[C@H](CCCCN)NC(=O)[C@H](CCCCN)NC(=O)[C@@H]1CCCN1C(=O)[C@H](CC(C)C)NC(=O)[C@@H]1CCCN1C(=O)[C@@H]1CCCN1C(=O)[C@@H]1CCCN1C(=O)[C@H](CC(C)C)NC(=O)[C@@H]1CCCN1C(C)=O)C(=O)N[C@@H](CC(C)C)C(=O)N[C@H](C(=O)N[C@@H](CCCNC(=N)N)C(=O)N[C@H](C(=O)N[C@@H](CCC(N)=O)C(=O)N[C@@H](COP(=O)(O)O)C(=O)N[C@@H](CC(C)C)C(=O)N1CCC[C@H]1C(=O)N[C@H](C(=O)N[C@@H](CCCNC(=N)N)C(=O)N[C@@H](CCCNC(=N)N)C(N)=O)[C@@H](C)O)[C@@H](C)O)[C@@H](C)O (single isomer, unassigned) [PEAK3^tandem-pS69]",Kd,14-3-3ε,0.78 µM
"PEAK3-FL E.coli: full length human PEAK3 (1–473) purified from E. coli, no bound 14-3-3","SPR KD, CrkII-SH2",CrkII^SH2,No binding
same,"SPR KD, 14-3-3ɣ",14-3-3ɣ,No binding
same,Kd,CrkII^NSH3 [2],9.6 µM
